Active and inactive are the calls of the source.
Tests used:
[1] = biological target: T1, Streptokinase A (Streptococcus pyogenes serotype M1, UniProt P10520); experiment: viability-normalized secreted streptokinase activity reduction – plasminogen activation absorbance, OD405, dose response (AID 1914); format: functional, Streptococcus pyogenes M1 GAS;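 note: secreted streptokinase activity via plasminogen activation per viability signal from cell pellet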
T1 sequence (P10520 whole entry): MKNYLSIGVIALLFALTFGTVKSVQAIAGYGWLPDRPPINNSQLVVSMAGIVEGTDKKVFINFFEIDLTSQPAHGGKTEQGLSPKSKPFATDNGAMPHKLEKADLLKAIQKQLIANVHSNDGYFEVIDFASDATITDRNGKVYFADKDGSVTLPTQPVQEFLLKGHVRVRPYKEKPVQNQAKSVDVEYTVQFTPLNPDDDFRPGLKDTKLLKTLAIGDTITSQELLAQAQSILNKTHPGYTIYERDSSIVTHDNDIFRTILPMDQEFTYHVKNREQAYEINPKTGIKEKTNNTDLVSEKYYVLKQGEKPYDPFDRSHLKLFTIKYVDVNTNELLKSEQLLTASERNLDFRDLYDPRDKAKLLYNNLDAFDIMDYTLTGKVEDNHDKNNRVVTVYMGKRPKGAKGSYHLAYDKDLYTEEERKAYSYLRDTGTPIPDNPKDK

[2] = potency of ADAM10 substrate cleavage blockers – biochemical, QFRET, dose response (AID 743254);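 note: ADAM10 enzyme with the DM2 quenched FRET peptide as substrate; EDANS fluorescence gain as the protease cuts the substrate; inhibitor potency against ADAM10 proteolytic activity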
[3] = tested on: Streptococcus; experiment: GAS UMAA2166 growth inhibition – luminescence, BacTiterGlo, counter-screen for streptokinase expression inhibitor project, dose response (AID 1915); format: functional, organism-based;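 note: potency for reduction of bacterial viability or growth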
[4] = tested on: Streptococcus sp. 'group A'; experiment: Streptococcus pyogenes SK(-)GAS viability under kanamycin – luminescence, BacTiterGlo, confirmation, counter-screen for streptokinase expression inhibitor project, dose response (AID 1900); format: functional, organism-based
[5] = biological target: Disintegrin and metalloproteinase domain-containing protein 17 (Homo sapiens, UniProt P78536); experiment: inhibition of ADAM17 substrate cleavage – biochemical, quenched FRET substrate, counter-screen for ADAM10 exosite inhibitor project, dose response (AID 743253)
[6] = biological target: 1-phosphatidylinositol 4,5-bisphosphate phosphodiesterase gamma-1 (Homo sapiens, UniProt P19174); experiment: Counterscreen for inhibitors of phospholipase C isozymes (PLC-B3): Fluorescence-based biochemical high throughput dose response assay to identify inhibitors of phospholipase C isozymes (PLC-gamma1).
[7] = biological target: 1-phosphatidylinositol 4,5-bisphosphate phosphodiesterase beta-3 (Homo sapiens, UniProt Q01970); experiment: Fluorescence-based biochemical high throughput dose response assay to identify inhibitors of phospholipase C isozymes (PLC-B3).
[8] = Late stage assay provider results from the probe development effort to identify inhibitors of the Plasmodium falciparum M18 Aspartyl Aminopeptidase (M18AAP): radiolabel-based cell-based dose response assay to identify compounds that inhibit P. falciparum growth in RBCs, Set 2..; format: functional
[9] = biological target: Metabotropic glutamate receptor 5 (Rattus norvegicus, UniProt P31424); experiment: Identification of a glycine sulfonamide based non-MPEP site positive allosteric potentiator (PAM) of mGlu5 (calcium_assay).; format: functional
[10] = biological target: Ephrin type-A receptor 4 (Mus musculus, UniProt Q03137); experiment: EphA4 ligand-binding antagonists – biochemical, colorimetric, mouse EphA4, primary screen (AID 689); format: functional
[11] = biological target: T2, Replicative DNA helicase DnaB (Mycobacterium tuberculosis, UniProt P9WMR3); experiment: DnaB intein splicing inhibitors, dose response, biochemical, cell-free fluorescence (AID 449749); format: functional
T2 sequence (P9WMR3 whole entry): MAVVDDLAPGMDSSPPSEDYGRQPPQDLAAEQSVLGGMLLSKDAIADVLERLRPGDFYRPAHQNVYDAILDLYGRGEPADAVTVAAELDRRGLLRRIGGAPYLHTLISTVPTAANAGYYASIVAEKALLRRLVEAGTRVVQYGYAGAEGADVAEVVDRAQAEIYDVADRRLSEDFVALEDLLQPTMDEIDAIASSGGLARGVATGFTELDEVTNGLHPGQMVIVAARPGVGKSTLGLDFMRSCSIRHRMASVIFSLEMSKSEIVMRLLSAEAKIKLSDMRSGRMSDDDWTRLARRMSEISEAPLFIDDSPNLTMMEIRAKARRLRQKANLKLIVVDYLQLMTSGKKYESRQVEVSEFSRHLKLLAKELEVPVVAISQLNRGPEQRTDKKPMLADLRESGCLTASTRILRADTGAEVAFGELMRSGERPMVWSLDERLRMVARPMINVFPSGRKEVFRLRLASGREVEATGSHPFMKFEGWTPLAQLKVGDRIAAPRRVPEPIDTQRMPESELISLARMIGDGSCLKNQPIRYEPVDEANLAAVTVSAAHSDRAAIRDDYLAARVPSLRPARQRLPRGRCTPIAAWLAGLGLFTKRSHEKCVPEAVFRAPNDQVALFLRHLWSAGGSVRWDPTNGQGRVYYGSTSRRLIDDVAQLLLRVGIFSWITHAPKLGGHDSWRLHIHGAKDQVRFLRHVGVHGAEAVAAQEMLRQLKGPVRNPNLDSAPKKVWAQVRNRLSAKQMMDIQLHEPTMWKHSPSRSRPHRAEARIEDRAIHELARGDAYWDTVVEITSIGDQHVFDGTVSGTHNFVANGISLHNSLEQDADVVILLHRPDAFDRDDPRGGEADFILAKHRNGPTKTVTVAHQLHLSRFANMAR

[12] = non-specific 3'UTR reporter inhibition in Clone20-Shn3RL – cell-based, Renilla luciferase, cherry-picked, counter-screen for Shn3 inhibitor project, dose response (AID 624133); format: functional
[13] = biological target: COUP transcription factor 2 (Homo sapiens, UniProt P24468); experiment: Luminescence-based cell-based high throughput dose response assay to identify inhibitors of COUP-TFII (NR2F2).; format: functional;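 note: HEK293 cells transiently cotransfected with COUP-TFII expression vector and reporter; luciferase reporter luminescence driven by COUP-TFII from the pX2-168 reporter plasmid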
[14] = reduction of Shn3 3'UTR-driven luciferase in osteoblasts – cell-based, Clone20 osteoblasts, firefly luciferase, cherry-picked, dose response (AID 624132); format: functional;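 note: firefly luciferase luminescence from reporter carrying the Shn3 3'UTR in osteoblasts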
[15] = tested on: INS1; experiment: INS-1E survival protection against cytokine death – cell-based, luminescence, retest, dose response (AID 449756); format: functional; conditions: Rattus norvegicus;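 note: cell death triggered by IL-1 beta plus TNF-alpha plus IFN-gamma mixture; protective hits raise ATP signal compared with cytokine alone wells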
[16] = biological target: T3, Protein RecA (Mycobacterium tuberculosis, UniProt P9WHJ3); experiment: Fluorescence Cell-Free Homogeneous Dose Retest to Identify Inhibitors of RecA-Intein Splicing Activity. [Related pubchem assays (depositor defined):AID2097, AID2223, AID489010, AID492950]; format: functional
T3 sequence (P9WHJ3 whole entry): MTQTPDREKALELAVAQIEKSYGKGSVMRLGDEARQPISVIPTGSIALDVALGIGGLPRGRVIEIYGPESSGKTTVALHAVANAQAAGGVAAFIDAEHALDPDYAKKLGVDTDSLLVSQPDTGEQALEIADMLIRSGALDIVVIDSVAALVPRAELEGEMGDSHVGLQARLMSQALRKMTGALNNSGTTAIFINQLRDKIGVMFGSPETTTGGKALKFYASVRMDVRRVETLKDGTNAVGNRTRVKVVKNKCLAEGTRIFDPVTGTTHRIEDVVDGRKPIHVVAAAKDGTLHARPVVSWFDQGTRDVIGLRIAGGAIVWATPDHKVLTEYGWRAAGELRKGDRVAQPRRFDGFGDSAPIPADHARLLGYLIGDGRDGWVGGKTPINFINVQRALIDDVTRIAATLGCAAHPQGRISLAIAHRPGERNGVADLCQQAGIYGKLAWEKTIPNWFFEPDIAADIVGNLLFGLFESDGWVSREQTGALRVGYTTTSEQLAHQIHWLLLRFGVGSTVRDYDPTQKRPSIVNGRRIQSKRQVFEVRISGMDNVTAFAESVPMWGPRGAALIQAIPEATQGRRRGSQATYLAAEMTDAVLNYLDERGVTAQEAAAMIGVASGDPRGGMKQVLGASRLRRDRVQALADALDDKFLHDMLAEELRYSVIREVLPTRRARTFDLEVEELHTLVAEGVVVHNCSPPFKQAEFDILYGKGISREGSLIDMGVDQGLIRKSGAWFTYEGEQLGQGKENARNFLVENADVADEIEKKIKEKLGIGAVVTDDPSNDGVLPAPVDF

[17] = loss of viability in HepG2 cells – cell-based, CellTiter-Glo, cherry-picked, cytotoxicity control for Shn3 inhibitor project, dose response (AID 624134); format: functional
[18] = Shn3 3'UTR reporter signal decrease – cell-based, Clone20 osteoblasts, firefly luciferase, cherry-pick, set 2, Schnurri-3 inhibitor project, dose response (AID 720490); format: functional;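 note: actives lower the luminescence signal as inhibitors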
[19] = mouse embryonic fibroblast toxicity – cell-based, plate reader, dry powder, set 2, cytotoxicity control, dose response (AID 652280); format: functional; conditions: NIH3T3
[20] = T. cruzi growth inhibition in host cells, dose response, cell-based, plate reader, dry powder, set 2 (AID 652275); format: functional
[21] = anti-trypanosomal activity in BESM host cells – imaging, CA-I/72 strain, bovine embryo skeletal muscle, dry powder, dose response (AID 651885); format: functional, cell-based

Sequence of Metabotropic glutamate receptor 5 (P31424 whole entry): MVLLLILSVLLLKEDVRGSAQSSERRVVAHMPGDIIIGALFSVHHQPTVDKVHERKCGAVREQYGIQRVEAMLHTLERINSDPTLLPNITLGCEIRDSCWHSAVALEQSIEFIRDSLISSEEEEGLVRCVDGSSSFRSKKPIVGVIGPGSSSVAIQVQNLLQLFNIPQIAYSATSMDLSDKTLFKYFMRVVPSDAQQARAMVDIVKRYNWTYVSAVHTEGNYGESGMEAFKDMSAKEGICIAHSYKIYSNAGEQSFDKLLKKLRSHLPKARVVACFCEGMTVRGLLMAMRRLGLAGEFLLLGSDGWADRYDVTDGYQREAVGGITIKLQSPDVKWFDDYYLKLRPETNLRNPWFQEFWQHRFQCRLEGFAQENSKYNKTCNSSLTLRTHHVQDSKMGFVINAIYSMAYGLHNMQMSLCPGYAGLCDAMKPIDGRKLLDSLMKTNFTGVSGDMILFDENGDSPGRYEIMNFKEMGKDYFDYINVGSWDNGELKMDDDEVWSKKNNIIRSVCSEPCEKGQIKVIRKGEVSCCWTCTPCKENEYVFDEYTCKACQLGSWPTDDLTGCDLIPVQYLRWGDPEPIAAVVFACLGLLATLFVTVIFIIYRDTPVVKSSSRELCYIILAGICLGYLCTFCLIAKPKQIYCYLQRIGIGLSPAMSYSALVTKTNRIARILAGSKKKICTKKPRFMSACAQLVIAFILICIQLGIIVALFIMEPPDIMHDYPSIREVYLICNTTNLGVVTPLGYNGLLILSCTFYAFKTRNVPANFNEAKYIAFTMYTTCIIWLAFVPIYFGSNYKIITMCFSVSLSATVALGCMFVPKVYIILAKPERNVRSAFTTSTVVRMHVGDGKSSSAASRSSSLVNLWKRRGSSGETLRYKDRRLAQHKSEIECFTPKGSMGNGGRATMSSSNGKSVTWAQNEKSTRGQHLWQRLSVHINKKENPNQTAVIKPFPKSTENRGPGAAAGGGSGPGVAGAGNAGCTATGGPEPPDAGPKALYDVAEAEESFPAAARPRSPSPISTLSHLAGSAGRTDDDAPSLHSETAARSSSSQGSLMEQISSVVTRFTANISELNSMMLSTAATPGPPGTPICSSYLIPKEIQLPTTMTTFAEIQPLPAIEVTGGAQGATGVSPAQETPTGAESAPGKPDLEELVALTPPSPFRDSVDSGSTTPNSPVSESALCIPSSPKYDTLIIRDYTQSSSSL
Sequence of Ephrin type-A receptor 4 (Q03137 whole entry): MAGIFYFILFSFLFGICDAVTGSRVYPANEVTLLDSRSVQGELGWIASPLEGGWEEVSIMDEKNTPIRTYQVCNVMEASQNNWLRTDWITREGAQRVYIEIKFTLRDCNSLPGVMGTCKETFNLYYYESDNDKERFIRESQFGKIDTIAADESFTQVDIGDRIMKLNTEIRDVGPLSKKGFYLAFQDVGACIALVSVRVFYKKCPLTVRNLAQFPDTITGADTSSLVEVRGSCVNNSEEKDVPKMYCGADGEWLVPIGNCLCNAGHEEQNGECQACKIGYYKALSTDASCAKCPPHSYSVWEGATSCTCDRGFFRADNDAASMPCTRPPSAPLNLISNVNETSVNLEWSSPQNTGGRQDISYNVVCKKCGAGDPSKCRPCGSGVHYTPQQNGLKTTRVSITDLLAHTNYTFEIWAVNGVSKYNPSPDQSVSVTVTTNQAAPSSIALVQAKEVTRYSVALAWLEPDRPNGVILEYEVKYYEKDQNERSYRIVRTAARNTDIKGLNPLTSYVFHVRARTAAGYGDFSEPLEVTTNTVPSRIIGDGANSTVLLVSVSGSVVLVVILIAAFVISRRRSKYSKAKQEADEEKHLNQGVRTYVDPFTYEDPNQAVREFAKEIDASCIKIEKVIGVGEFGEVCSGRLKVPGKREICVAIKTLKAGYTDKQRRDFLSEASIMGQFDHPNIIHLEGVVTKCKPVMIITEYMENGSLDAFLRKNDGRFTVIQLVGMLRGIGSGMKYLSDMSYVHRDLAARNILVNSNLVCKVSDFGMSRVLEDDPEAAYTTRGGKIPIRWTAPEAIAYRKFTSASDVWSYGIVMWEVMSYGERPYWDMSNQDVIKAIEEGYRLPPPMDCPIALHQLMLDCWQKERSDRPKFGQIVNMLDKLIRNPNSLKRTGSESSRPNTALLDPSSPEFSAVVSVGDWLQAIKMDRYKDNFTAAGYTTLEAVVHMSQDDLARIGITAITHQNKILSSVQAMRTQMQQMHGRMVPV
Sequence of 1-phosphatidylinositol 4,5-bisphosphate phosphodiesterase beta-3 (Q01970 whole entry): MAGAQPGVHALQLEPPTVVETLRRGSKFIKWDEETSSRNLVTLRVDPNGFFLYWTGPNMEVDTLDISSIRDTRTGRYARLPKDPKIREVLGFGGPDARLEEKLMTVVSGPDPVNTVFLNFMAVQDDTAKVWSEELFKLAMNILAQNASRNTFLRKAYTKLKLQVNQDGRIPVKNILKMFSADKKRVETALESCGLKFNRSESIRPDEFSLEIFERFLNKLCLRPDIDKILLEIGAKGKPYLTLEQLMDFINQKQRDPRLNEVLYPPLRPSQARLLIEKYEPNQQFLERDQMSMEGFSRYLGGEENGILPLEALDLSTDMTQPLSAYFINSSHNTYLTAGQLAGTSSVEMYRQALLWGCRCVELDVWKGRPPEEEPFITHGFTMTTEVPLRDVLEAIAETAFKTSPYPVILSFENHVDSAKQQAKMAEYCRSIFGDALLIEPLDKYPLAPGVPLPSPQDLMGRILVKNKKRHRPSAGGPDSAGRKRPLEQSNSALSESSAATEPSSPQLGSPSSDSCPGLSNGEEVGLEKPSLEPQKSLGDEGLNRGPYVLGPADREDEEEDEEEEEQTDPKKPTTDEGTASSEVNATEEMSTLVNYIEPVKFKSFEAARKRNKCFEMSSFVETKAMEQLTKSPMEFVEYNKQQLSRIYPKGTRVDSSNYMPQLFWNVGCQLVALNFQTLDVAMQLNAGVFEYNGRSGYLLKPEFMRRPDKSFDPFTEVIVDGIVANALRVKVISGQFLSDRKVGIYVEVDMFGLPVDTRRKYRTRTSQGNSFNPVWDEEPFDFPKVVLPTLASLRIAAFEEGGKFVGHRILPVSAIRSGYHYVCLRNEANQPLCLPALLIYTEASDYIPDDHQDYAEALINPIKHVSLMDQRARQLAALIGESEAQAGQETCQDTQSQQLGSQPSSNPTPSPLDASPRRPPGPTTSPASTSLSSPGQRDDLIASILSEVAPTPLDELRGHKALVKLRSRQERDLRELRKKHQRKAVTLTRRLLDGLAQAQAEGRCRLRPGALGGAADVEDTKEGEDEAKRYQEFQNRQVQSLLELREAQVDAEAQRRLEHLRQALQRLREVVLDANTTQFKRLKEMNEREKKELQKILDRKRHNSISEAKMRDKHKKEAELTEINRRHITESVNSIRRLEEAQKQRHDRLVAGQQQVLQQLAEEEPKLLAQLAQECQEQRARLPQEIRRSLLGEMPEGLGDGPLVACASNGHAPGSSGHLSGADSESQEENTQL
Sequence of 1-phosphatidylinositol 4,5-bisphosphate phosphodiesterase gamma-1 (P19174 whole entry): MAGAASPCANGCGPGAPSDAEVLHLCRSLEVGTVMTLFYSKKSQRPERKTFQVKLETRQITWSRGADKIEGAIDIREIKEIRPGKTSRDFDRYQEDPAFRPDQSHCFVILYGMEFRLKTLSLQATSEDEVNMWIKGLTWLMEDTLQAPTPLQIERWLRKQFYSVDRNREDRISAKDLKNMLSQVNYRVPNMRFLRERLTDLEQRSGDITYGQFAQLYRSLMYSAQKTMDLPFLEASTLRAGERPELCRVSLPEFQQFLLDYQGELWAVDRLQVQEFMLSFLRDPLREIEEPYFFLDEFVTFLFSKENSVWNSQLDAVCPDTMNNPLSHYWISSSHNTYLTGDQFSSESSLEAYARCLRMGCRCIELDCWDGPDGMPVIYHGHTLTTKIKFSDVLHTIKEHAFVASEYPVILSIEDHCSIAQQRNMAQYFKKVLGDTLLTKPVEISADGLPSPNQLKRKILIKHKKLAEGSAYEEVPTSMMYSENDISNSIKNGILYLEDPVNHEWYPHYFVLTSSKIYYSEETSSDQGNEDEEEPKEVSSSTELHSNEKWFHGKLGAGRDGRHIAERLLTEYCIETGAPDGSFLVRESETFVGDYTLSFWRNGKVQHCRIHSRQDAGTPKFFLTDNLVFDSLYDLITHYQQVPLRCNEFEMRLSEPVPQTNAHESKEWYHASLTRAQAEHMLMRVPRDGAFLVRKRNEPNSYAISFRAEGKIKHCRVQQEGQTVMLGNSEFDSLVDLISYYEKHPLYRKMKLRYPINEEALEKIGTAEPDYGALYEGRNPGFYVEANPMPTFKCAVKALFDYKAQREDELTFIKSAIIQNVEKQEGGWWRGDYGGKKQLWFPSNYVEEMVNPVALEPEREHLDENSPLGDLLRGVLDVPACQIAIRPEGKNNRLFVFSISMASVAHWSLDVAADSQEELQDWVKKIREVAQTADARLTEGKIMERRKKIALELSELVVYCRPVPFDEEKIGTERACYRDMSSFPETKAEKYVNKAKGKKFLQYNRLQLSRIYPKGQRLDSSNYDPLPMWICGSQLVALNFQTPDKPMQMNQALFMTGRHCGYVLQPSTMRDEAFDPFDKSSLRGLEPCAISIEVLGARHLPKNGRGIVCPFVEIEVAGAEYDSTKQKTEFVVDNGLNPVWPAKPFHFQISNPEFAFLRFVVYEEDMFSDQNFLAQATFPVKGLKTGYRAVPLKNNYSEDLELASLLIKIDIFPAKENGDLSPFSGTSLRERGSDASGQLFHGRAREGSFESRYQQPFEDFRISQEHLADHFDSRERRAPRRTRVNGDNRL
Sequence of COUP transcription factor 2 (P24468 whole entry): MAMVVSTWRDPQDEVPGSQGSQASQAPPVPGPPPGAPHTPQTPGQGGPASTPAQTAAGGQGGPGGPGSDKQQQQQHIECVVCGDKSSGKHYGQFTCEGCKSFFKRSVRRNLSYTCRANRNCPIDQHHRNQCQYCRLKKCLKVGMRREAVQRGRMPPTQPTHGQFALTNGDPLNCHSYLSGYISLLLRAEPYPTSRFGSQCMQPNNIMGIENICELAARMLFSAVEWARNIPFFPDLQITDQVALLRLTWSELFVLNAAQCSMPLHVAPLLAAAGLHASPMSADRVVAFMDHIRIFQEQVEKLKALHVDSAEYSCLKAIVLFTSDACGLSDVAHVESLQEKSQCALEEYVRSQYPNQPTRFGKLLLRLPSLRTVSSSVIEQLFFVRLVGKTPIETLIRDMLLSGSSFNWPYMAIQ

Compound: O=C(OCc1ccc(-c2ccccc2)cc1)c1cccc(O)c1
- EC50 [1]: 22.4 µM (active)
- IC50 [2]: > 7.72 µM (active)
- EC50 [3]: 19 µM (active)
- EC50 [4]: 11.4 µM (active)
- IC50 [5]: > 69.5 µM (inactive)

Compound: O=[N+]([O-])c1ccc2[nH]cc(S(=O)(=O)N3CCN(c4cccc(Cl)c4)CC3)c2c1
- IC50 [6]: > 122 µM (inactive)
- IC50 [7]: > 122 µM (inactive)

Compound: Oc1ccc(CCCNc2c3ccccc3nc3ccccc23)cc1O
- IC50 [8]: 3.7 µM (active)

Compound: CS(=O)(=O)N(CC(=O)Nc1cccc(Cl)c1)c1ccccc1Cl
- EC50 [9]: 0.051 µM
- IC50 [10]: > 100 µM (not active)

Compound: Cc1cccc(Nc2nc(NCc3ccco3)c3ccccc3n2)c1
- AC50 [11]: 5.65 µM (active)
- AC50 [12]: 3.22 µM (active)
- IC50 [13]: 8.5 µM (active)
- AC50 [14]: 2.05 µM (active)
- AC50 [15]: 2.09 µM (active)
- EC50 [16]: 9.37 µM (active)
- AC50 [17]: 13.1 µM (active)

Compound: O=C(COC(=O)c1[nH]nc2ccccc12)Nc1ccc(S(=O)(=O)N2CCCC2)cc1
- AC50 [12]: 36.1 µM (active)
- AC50 [14]: 5.33 µM (active)
- AC50 [18]: 31.8 µM (active)

Compound: C[C@H]1CN([C@@H](C)CO)C(=O)c2cccc(NC(=O)c3ccncc3)c2O[C@@H]1CN(C)Cc1ccc(Cl)c(Cl)c1
- AC50 [19]: 13.2 µM (active)
- AC50 [20]: 0.00674 µM (active)
- IC50 [21]: 0.00211 µM (active)

From ChEMBL document CHEMBL1201862, “PubChem BioAssay data set” (2004)
